In patent US7074801B1, “Nitrogen-containing condensed cyclic compound having a pyrazolyl group as a substituent group and pharmaceutical composition thereof” (Eisai Co., Ltd., priority 2001, dated 2006):
Counter-ions that a name gives are not always drawn.

Test system: STAT6
Test: Inhibitory test on STAT6 activation: IL-4-induced alkali phosphatase STAT6 reporter in 293 cells stably expressing the STAT6 gene and STAT6 reporter gene
Type: cell-based
Conditions: HEK293; Table 2; 1 ng/ml human recombinant IL-4, 16 hours, 293 cells with STAT6 reporter; read-out: Inhibitory activity IC50 (concentration at which the alkali phosphatase activity induced by IL-4 was inhibited by 50%)
Summary of the method: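 HEK293 clone stably carrying STAT6 and a STAT6-element-driven alkaline phosphatase reporter, 5000 cells/well. Compound (DMSO ≤0.1%) plus 1 ng/ml human IL-4 for 16 hours. Supernatant heat-treated 65° C. 10 minutes, then alkaline phosphatase measured fluorometrically in carbonate buffer.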

SMILES: C[C@H](NC(=O)c1ccc(-n2cnc3ccc(-c4cn[nH]c4)cc32)cc1F)C(=O)c1ccc(F)cc1 [Example 729, N1-[(1S)-2-(4-Fluorophenyl-1-methyl-2-oxoethyl)-2-fluoro-4-[6-(1H-4-pyrazolyl)-1H-benzo[d]imidazol-1-yl]benzamide hydrochloride]
- IC50: < 10 nM

SMILES: CS(=O)(=O)c1cc(F)cc(N2CCN(c3ncnc4ccc(-c5cn[nH]c5)cc34)CC2)c1 [Example 845, 4-[4-(3-Fluoro-5-methylsulfonylphenyl)piperazin-1-yl]-6-(1H-4-pyrazolyl)quinazoline dihydrochloride]
- IC50: < 10 nM

SMILES: O=S(=O)(c1ccc(-c2ncnc3ccc(-c4c[nH]nc4-c4ccc(F)cc4)cc23)s1)N1CCCC1 [Example 850, 6-[3-(4-Fluorophenyl)-1H-pyrazol-4-yl]-4-[5-(pyrrolidine-1-sulfonyl)thiophen-2-yl]quinazoline dihydrochloride]
- IC50: 100 to 1000 nM

SMILES: CN(C)CCN(C)S(=O)(=O)c1ccc(-c2ncnc3ccc(-c4c[nH]nc4-c4ccc(F)cc4)cc23)s1 [Example 855, 5-{6-[3-(4-Fluorophenyl)-1H-pyrazol-4-yl]quinazolin-4-yl}-thiophen-2-sulfonic acid (2-dimethylaminoethyl)methylamide trihydrochloride]
- IC50: < 10 nM

SMILES: CN(c1ccccc1)S(=O)(=O)c1ccc(-c2ncnc3ccc(-c4c[nH]nc4-c4ccc(F)cc4)cc23)s1 [Example 856, 5-{6-[3-(4-Fluorophenyl)-1H-pyrazol-4-yl]quinazolin-4-yl}-thiophen-2-sulfonic acid methylphenylamide dihydrochloride]
- IC50: 100 to 1000 nM

SMILES: CN(CC(=O)c1ccc(F)cc1)S(=O)(=O)c1ccc(-c2ncnc3ccc(-c4c[nH]nc4-c4ccc(F)cc4)cc23)s1 [Example 866, 5-{6-[3-(4-Fluorophenyl)-1H-pyrazol-4-yl]quinazolin-4-yl}thiophen-2-sulfonic acid [2-(4-fluorophenyl) 2-oxoethyl]methylamide dihydrochloride]
- IC50: 10 to 100 nM

SMILES: O=C(Nc1ccc(F)cc1F)c1ccc(-c2ncnc3ccc(-c4cn[nH]c4)cc23)s1 [Example 869, 5-[6-(1H-Pyrazol-4-yl)quinazolin-4-yl]thiophen-2-carboxylic acid (2,4-difluorophenyl)amide dihydrochloride]
- IC50: 10 to 100 nM

SMILES: O=C(Nc1nccs1)c1ccc(-c2ncnc3ccc(-c4cn[nH]c4)cc23)cc1F [Example 872, 2-Fluoro-N-thiazol-2-yl-4-[6-(1H-pyrazol-4-yl)quinazolin-4-yl]benzamide trihydrochloride]
- IC50: 10 to 100 nM

SMILES: O=C(NC1CC1)c1ccc(-c2ncnc3ccc(-c4c[nH]nc4-c4ccc(F)cc4F)cc23)cc1F [Example 873, N-Cyclopropyl-4-{6-[3-(2,4-difluorophenyl)-1H-pyrazol-4-yl]quinazolin-4-yl}-2-fluorobenzamide dihydrochloride]
- IC50: 100 to 1000 nM

SMILES: Cc1n[nH]cc1-c1ccc2ncnc(N3CCC(Oc4cccc(C#N)c4)CC3)c2c1 [Example 876, 3-{1-[6-(3-Methyl-1H-pyrazol-4-yl)quinazolin-4-yl]piperidin-4-yloxy} benzonitrile trihydrochloride]
- IC50: 10 to 100 nM

SMILES: CS(=O)(=O)c1ccc(C(=O)C2CCN(c3ncnc4ccc(-c5cn[nH]c5)cc34)CC2)s1 [Example 880, (5-Methylsulfonylthiophen-2-yl)-{1-[6-(1H-pyrazol-4-yl)quinazolin-4-yl]piperidin-4-yl}methanone trihydrochloride]
- IC50: 10 to 100 nM

SMILES: CNc1ccc(-c2n[nH]cc2-c2ccc3ncnc(-c4ccc(S(C)(=O)=O)s4)c3c2)cc1 [Example 883, (4-{4-[4-(5-Methylsulfonylthiophen-2-yl)quinazolin-6-yl]-1H-pyrazol-3-yl}phenyl) methylamine]
- IC50: < 10 nM

SMILES: CS(=O)(=O)c1ccc(-c2ncnc3ccc(-c4c[nH]nc4-c4ccc(N5CCOCC5)cc4)cc23)s1 [Example 887, 4-(5-Methylsulfonylthiophen-2-yl)-6-[3-(4-morpholin-4-ylphenyl)-1H-pyrazol-4-yl] quinazoline]
- IC50: 10 to 100 nM

SMILES: COc1ccc(-c2ccc(-c3n[nH]cc3-c3ccc4ncnc(-c5ccc(S(C)(=O)=O)s5)c4c3)cc2)cn1 [Example 889, 6-{3-[4-(6-Methoxypyridin-3-yl)phenyl]-1H-pyrazol-4-yl}-4-(5-methylsulfonylthiophen-2-yl) quinazoline]
- IC50: 10 to 100 nM

SMILES: Cc1ccc(-c2n[nH]cc2-c2ccc3ncnc(-c4ccc(S(C)(=O)=O)s4)c3c2)cc1 [Example 890, 4-(5-Methylsulfonylthiophen-2-yl)-6-(3-p-tolyl-1H-pyrazol-4-yl) quinazoline]
- IC50: < 10 nM

SMILES: CS(=O)(=O)c1ccc(-c2ncnc3ccc(-c4c[nH]nc4-c4ccc(OC(F)(F)F)cc4)cc23)s1 [Example 892, 4-(5-Methylsulfonylthiophen-2-yl)-6-[3-(4-trifluoromethoxyphenyl)-1H-pyrazol-4-yl] quinazoline]
- IC50: 10 to 100 nM

SMILES: CS(=O)(=O)c1ccc(-c2ncnc3ccc(-c4c[nH]nc4-c4ccc(Cl)cc4F)cc23)s1 [Example 894, 6-[3-(4-Chloro-2-fluorophenyl)-1H-pyrazol-4-yl]-4-(5-methylsulfonylthiophen-2-yl) quinazoline]
- IC50: < 10 nM

SMILES: CSc1ccc(-c2n[nH]cc2-c2ccc3ncnc(-c4ccc(S(C)(=O)=O)s4)c3c2)cc1 [Example 895, 6-[3-(4-Methylsulfanylphenyl)-1H-pyrazol-4-yl]-4-(5-methylsulfonylthiophen-2-yl) quinazoline]
- IC50: < 10 nM

SMILES: CCS(=O)(=O)c1ccc(-c2ncnc3ccc(-c4c[nH]nc4-c4ccc(F)cc4)cc23)s1 [Example 896, 4-(5-Ethanesulfonylthiophen-2-yl)-6-[3-(4-fluorophenyl)-1H-pyrazol-4-yl] quinazoline]
- IC50: < 10 nM

SMILES: CS(=O)(=O)c1cnc(-c2ncnc3ccc(-c4c[nH]nc4-c4ccc(F)cc4)cc23)s1 [Example 897, 6-[3-(4-Fluorophenyl)-1H-pyrazol-4-yl]-4-(5-methylsulfonylthiazol-2-yl) quinazoline]
- IC50: < 10 nM

SMILES: CS(=O)(=O)c1cnc(-c2ncnc3ccc(-c4c[nH]nc4-c4c(F)cccc4F)cc23)s1 [Example 899, 6-[3-(2,6-Difluorophenyl)-1H-pyrazol-4-yl]-4-(5-methylsulfonylthiazol-2-yl) quinazoline]
- IC50: < 10 nM

SMILES: CS(=O)(=O)c1ccc(-c2ncnc3ccc(-c4c[nH]nc4-c4ccc(F)cc4)cc23)o1 [Example 900, 6-[3-(4-Fluorophenyl)-1H-pyrazol-4-yl]-4-(5-methylsulfonylfuran-2-yl) quinazoline]
- IC50: 10 to 100 nM

SMILES: CS(=O)(=O)c1ccc(-c2ncnc3ccc(-c4c[nH]nc4[N+](=O)[O-])cc23)s1 [Example 901, 4-(5-Methylsulfonylthiophen-2-yl)-6-(3-nitro-1H-pyrazol-4-yl) quinazoline]
- IC50: 100 to 1000 nM

SMILES: O=S(=O)(c1ccc(-c2ncnc3ccc(-c4c[nH]nc4-c4ccc(F)cc4)cc23)s1)C1CC1 [Example 902, 4-(5-Cyclopropanesulfonylthiophen-2-yl)-6-[3-(4-fluorophenyl)-1H-pyrazol-4-yl] quinazoline]
- IC50: < 10 nM

SMILES: O=S(=O)(c1ccc(-c2ncnc3ccc(-c4c[nH]nc4-c4ccc(F)cc4F)cc23)s1)C1CC1 [Example 903, 4-(5-Cyclopropanesulfonylthiophen-2-yl)-6-[3-(2,4-difluorophenyl)-1H-pyrazol-4-yl] quinazoline]
- IC50: < 10 nM

SMILES: CS(=O)(=O)c1ccc(-c2ncnc3ccc(-c4c[nH]nc4CN4CCOCC4)cc23)s1 [Example 904, 4-(5-Methylsulfonylthiophen-2-yl)-6-(3-morpholin-4-ylmethyl-1H-pyrazol-4-yl) quinazoline]
- IC50: 100 to 1000 nM

SMILES: CS(=O)(=O)c1ccc(-c2ncnc3ccc(-c4c[nH]nc4COc4ccc(F)cc4F)cc23)s1 [Example 905, 6-[3-(2,4-Difluorophenoxymethyl)-1H-pyrazol-4-yl]-4-(5-methylsulfonylthiophen-2-yl) quinazoline]
- IC50: 100 to 1000 nM

SMILES: CS(=O)(=O)c1ccc(-c2ncnc3ccc(-c4c[nH]nc4CNc4ccc(F)cc4F)cc23)s1 [Example 906, 2,4-Difluorophenyl{4-[4-(5-methylsulfonylthiophen-2-yl)quinazolin-6-yl]-1H-pyrazol-3-ylmethyl} amine]
- IC50: 100 to 1000 nM

SMILES: Fc1ccc(-c2n[nH]cc2-c2ccc3ncnc(-c4nnc(C5CC5)o4)c3c2)c(F)c1 [Example 907, 4-(5-Cyclopropyl[1,3,4]oxadiazol-2-yl)-6-[3-(2,4-difluorophenyl)-1H-pyrazol-4-yl] quinazoline]
- IC50: 10 to 100 nM

SMILES: Fc1ccc(-c2n[nH]cc2-c2ccc3ncnc(-c4nnc(C5CC5)s4)c3c2)c(F)c1 [Example 908, 4-(5-Cyclopropyl[1,3,4]thiadiazol-2-yl)-6-[3-(2,4-difluorophenyl)-1H-pyrazol-4-yl] quinazoline]
- IC50: < 10 nM

SMILES: COc1nnc(-c2ncnc3ccc(-c4c[nH]nc4-c4c(F)cccc4F)cc23)o1 [Example 909, 6-[3-(2,6-Difluorophenyl)-1H-pyrazol-4-yl]-4-(5-methoxy|[1,3,4]oxadiazol-2-yl) quinazoline]
- IC50: 10 to 100 nM

SMILES: Cn1cc(-c2ncnc3ccc(-c4c[nH]nc4-c4c(F)cccc4F)cc23)cn1 [Example 910, 6-[3-(2,6-Difluorophenyl)-1H-pyrazol-4-yl]-4-(1-methyl-1H-pyrazol-4-yl) quinazoline]
- IC50: < 10 nM

SMILES: Cn1cnc(-c2ncnc3ccc(-c4c[nH]nc4-c4c(F)cccc4F)cc23)c1 [Example 911, 6-[3-(2,6-Difluorophenyl)-1H-pyrazol-4-yl]-4-(1-methyl-1H-imidazol-4-yl) quinazoline]
- IC50: < 10 nM

SMILES: Cc1cnn(-c2ncnc3ccc(-c4c[nH]nc4-c4c(F)cccc4F)cc23)c1 [Example 913, 6-[3-(2,6-Difluorophenyl)-1H-pyrazol-4-yl]-4-(4-methylpyrazol-1-yl) quinazoline]
- IC50: < 10 nM

SMILES: Cc1cn(-c2ncnc3ccc(-c4c[nH]nc4-c4c(F)cccc4F)cc23)cn1 [Example 914, 6-[3-(2,6-Difluorophenyl)-1H-pyrazol-4-yl]-4-(4-methylimidazol-1-yl) quinazoline]
- IC50: < 10 nM
